According to patent US9340590B2 (priority 2011, dated 2016):
Like-named read-outs stand apart in the source and are kept apart here. Positions of bridges follow the written chain, without caps; N, C: chain ends. Residues, ends and D or L forms follow the SMILES beside them.

Assays:
[1] = molecular target: hNav1.5 (Homo sapiens, UniProt Q14524); assay: cell-based
[2] = molecular target: hNav1.3 (Homo sapiens, UniProt Q9NY46); assay: cell-based; conditions: IonWorks Quattro, read-out: IWQ Use Nav1.3
Sequence of hNav1.3 (Q9NY46 whole entry, looked up): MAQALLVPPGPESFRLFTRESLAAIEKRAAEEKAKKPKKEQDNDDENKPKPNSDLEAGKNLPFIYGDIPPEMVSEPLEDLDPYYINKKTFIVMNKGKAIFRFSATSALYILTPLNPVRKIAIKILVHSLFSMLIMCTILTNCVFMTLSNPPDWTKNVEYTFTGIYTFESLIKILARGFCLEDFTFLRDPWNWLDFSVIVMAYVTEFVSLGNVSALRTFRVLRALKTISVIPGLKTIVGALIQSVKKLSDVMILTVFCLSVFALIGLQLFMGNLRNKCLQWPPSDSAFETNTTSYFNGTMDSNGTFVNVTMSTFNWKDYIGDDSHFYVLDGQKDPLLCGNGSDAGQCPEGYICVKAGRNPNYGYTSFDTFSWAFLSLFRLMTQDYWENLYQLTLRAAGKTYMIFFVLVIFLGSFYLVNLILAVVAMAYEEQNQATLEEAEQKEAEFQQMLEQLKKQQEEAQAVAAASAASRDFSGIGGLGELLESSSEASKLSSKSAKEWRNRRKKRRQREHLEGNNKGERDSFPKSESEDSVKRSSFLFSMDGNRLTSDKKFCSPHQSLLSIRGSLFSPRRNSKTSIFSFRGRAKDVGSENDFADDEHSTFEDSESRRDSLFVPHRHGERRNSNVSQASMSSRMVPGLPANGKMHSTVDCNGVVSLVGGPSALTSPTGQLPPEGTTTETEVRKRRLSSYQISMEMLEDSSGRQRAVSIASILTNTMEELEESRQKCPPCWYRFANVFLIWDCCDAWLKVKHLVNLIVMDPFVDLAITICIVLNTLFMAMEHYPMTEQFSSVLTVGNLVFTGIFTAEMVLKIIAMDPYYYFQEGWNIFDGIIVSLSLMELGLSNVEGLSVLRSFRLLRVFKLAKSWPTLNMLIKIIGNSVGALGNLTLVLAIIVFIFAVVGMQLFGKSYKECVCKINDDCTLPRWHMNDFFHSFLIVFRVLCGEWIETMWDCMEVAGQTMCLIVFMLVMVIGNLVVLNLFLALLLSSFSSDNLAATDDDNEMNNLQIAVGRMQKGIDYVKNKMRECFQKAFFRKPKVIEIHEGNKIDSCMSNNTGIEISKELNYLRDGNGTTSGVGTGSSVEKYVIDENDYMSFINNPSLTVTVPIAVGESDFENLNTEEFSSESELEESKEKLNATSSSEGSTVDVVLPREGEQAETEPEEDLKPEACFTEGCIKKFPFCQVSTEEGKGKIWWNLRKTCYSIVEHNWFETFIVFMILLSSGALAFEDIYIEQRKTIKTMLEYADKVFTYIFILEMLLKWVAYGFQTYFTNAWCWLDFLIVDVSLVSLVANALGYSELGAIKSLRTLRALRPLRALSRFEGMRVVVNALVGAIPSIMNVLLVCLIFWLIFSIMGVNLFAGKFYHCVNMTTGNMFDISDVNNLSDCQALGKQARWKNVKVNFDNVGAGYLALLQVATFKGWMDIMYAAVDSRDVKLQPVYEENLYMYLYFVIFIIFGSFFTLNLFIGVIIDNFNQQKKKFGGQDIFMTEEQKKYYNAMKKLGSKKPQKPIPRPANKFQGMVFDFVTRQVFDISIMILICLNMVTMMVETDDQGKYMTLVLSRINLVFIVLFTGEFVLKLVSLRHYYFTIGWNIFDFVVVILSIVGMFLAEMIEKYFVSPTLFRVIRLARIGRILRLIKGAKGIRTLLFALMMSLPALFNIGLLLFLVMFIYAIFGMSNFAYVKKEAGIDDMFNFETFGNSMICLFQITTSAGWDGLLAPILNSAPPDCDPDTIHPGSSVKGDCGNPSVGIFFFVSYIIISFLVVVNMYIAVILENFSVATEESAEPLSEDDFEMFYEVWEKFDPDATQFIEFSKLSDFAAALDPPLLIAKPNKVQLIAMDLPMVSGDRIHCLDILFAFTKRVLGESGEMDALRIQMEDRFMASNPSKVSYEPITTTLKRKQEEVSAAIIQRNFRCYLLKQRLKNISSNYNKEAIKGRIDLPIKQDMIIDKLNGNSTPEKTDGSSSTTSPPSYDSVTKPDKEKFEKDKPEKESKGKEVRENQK

[3] = IonWorks Quattro, Use, read-out: IWQ Use Nav1.5

Sequence of hNav1.5 (Q14524 whole entry, looked up): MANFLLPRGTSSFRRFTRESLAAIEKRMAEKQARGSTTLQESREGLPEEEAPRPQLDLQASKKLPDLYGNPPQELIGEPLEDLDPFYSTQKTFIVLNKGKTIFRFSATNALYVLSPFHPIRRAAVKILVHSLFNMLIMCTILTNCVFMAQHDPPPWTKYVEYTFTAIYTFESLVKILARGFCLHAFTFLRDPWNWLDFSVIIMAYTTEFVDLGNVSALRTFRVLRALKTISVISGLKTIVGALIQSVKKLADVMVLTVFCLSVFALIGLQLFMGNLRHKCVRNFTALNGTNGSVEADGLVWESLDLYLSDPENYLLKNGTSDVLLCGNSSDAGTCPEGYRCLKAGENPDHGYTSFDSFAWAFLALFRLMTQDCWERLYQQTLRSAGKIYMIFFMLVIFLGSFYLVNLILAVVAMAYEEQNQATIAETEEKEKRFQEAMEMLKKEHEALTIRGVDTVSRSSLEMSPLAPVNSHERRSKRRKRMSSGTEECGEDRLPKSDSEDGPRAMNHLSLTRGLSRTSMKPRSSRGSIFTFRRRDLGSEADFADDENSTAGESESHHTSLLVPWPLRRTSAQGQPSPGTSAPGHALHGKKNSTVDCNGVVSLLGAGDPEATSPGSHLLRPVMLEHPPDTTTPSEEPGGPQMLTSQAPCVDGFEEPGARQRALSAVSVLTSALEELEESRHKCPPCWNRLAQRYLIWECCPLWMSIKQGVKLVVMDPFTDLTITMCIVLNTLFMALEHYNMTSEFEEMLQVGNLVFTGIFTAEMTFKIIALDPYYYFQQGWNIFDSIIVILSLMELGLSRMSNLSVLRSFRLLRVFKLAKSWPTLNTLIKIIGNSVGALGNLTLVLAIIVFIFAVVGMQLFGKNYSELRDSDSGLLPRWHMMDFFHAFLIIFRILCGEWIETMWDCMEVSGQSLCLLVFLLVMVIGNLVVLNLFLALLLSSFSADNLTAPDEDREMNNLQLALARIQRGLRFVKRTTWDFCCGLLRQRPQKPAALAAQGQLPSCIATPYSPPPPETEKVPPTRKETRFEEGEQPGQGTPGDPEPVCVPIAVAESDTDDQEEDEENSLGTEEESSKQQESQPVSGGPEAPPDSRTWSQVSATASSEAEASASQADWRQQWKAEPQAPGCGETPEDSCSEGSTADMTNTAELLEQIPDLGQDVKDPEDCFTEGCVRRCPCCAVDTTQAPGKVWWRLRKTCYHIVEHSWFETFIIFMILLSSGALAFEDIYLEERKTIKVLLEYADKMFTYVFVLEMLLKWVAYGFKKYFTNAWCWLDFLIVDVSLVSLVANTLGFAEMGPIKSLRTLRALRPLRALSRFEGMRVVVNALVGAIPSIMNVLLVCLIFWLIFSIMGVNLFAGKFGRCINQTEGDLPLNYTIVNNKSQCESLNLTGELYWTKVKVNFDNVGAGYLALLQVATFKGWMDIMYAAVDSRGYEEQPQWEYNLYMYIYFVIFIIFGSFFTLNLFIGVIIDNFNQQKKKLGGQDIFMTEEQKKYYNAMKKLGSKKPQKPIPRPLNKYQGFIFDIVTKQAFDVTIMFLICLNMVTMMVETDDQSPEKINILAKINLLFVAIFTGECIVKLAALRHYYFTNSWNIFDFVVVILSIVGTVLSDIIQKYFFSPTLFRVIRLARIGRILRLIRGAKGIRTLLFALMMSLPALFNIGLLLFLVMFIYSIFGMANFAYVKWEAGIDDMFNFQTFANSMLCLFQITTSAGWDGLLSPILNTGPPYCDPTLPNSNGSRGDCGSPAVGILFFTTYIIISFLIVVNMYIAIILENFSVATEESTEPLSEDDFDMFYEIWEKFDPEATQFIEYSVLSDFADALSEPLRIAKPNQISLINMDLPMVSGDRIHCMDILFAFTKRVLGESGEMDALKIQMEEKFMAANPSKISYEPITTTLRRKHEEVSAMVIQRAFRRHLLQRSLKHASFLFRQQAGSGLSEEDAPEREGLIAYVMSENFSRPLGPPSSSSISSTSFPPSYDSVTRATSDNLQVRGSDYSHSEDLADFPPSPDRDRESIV

| SMILES | IC50 [1, 3] | IC50 ([2]; Use) | IC50 ([1]; Table 25, IonWorks Quattro, use, […], read-out: IWQ Use Nav1.5) | IC50 ([2]; Table 25, use, […]) | IC50 ([1]; IWQ Use Nav1.5 (μM)) |
| --- | --- | --- | --- | --- | --- |
| CC[C@H](C)[C@@H]1NC(=O)[C@@H]2CSSC[C@@H]3NC(=O)[C@H](C(C)C)NC(=O)[C@H](CC(C)C)NC(=O)[C@H](C)NC(=O)[C@@H]4CCCN4C(=O)[C@H](CCCNC(=N)N)NC(=O)[C@H](CSSC[C@H](NC(=O)[C@@H](N)CC(=O)O)C(=O)N[C@@H](CC(C)C)C(=O)NCC(=O)N[C@@H](Cc4ccccc4)C(=O)N[C@@H](CCSC)C(=O)N[C@@H](CCCNC(=N)N)C(=O)N[C@@H](CCCCN)C(=O)N2)NC(=O)[C@H](CSSC[C@@H](C(=O)N[C@@H](CCCCN)C(=O)N[C@@H](Cc2ccc(O)cc2)C(=O)N[C@H](C(=O)N[C@@H](Cc2ccccc2)C(N)=O)C(C)C)NC(=O)[C@H](Cc2c[nH]c4ccccc24)NC(=O)[C@H](CCCCN)NC(=O)[C@H](Cc2cnc[nH]2)NC(=O)[C@H]([C@@H](C)O)NC(=O)[C@H](CCCNC(=N)N)NC(=O)[C@H](CO)NC3=O)NC(=O)[C@H](CCCCN)NC(=O)[C@H](CC(=O)O)NC(=O)[C@H](CC(N)=O)NC(=O)[C@H](CC(=O)O)NC(=O)[C@@H]2CCCN2C1=O [compound 7] (H-DCLGFMRKCIPDNDKCCRPALVCSRTHKWCKYVF-NH2; disulfide 2-17, 9-23, 16-30) | 19.5 µM | 0.41 µM |  |  |  |
| CC[C@H](C)[C@@H]1NC(=O)[C@@H]2CSSC[C@@H]3NC(=O)[C@H](C)NC(=O)[C@H](CC(C)C)NC(=O)[C@H](CC(N)=O)NC(=O)[C@@H]4CCCN4C(=O)[C@H](CCCNC(=N)N)NC(=O)[C@H](CSSC[C@H](NC(=O)[C@@H](N)CC(=O)O)C(=O)N[C@@H](CC(C)C)C(=O)NCC(=O)N[C@@H](Cc4ccccc4)C(=O)N[C@@H](CCSC)C(=O)N[C@@H](CCCNC(=N)N)C(=O)N[C@@H](CCCCN)C(=O)N2)NC(=O)[C@H](CSSC[C@@H](C(=O)N[C@@H](CCCCN)C(=O)N[C@@H](Cc2ccc(O)cc2)C(=O)N[C@H](C(=O)N[C@@H](Cc2ccccc2)C(N)=O)C(C)C)NC(=O)[C@H](Cc2c[nH]c4ccccc24)NC(=O)[C@H](CCCCN)NC(=O)[C@H](Cc2cnc[nH]2)NC(=O)[C@H]([C@@H](C)O)NC(=O)[C@H](CCCNC(=N)N)NC(=O)[C@H](CO)NC3=O)NC(=O)[C@H](CCCCN)NC(=O)[C@H](CC(=O)O)NC(=O)[C@H](CC(N)=O)NC(=O)[C@H](CC(=O)O)NC(=O)[C@@H]2CCCN2C1=O [compound 8] (H-DCLGFMRKCIPDNDKCCRPNLACSRTHKWCKYVF-NH2; disulfide 2-17, 9-23, 16-30) | 20.4 µM | 0.32 µM |  |  |  |
| CC[C@H](C)[C@@H]1NC(=O)[C@@H]2CSSC[C@@H]3NC(=O)[C@H](C(C)C)NC(=O)[C@H](CC(C)C)NC(=O)[C@H](CC(N)=O)NC(=O)[C@@H]4CCCN4C(=O)[C@H](CCCNC(=N)N)NC(=O)[C@H](CSSC[C@H](NC(=O)[C@@H](N)CC(=O)O)C(=O)N[C@@H](CC(C)C)C(=O)NCC(=O)N[C@@H](Cc4ccccc4)C(=O)N[C@@H](CCSC)C(=O)N[C@@H](CCCNC(=N)N)C(=O)N[C@@H](CCCCN)C(=O)N2)NC(=O)[C@H](CSSC[C@@H](C(=O)N[C@@H](CCCCN)C(=O)N[C@@H](C)C(=O)N[C@H](C(=O)N[C@@H](Cc2ccccc2)C(N)=O)C(C)C)NC(=O)[C@H](Cc2c[nH]c4ccccc24)NC(=O)[C@H](CCCCN)NC(=O)[C@H](Cc2cnc[nH]2)NC(=O)[C@H]([C@@H](C)O)NC(=O)[C@H](CCCNC(=N)N)NC(=O)[C@H](CO)NC3=O)NC(=O)[C@H](CCCCN)NC(=O)[C@H](CC(=O)O)NC(=O)[C@H](CC(N)=O)NC(=O)[C@H](CC(=O)O)NC(=O)[C@@H]2CCCN2C1=O [compound 14] (H-DCLGFMRKCIPDNDKCCRPNLVCSRTHKWCKAVF-NH2; disulfide 2-17, 9-23, 16-30) |  |  | 20.6 µM | 0.77 µM |  |
| CC[C@H](C)[C@@H]1NC(=O)[C@@H]2CSSC[C@@H]3NC(=O)[C@H](C(C)C)NC(=O)[C@H](CC(C)C)NC(=O)[C@H](CC(N)=O)NC(=O)[C@@H]4CCCN4C(=O)[C@H](CCCNC(=N)N)NC(=O)[C@H](CSSC[C@H](NC(=O)[C@@H](N)CC(=O)O)C(=O)N[C@@H](CC(C)C)C(=O)NCC(=O)N[C@@H](Cc4ccccc4)C(=O)N[C@@H](CCSC)C(=O)N[C@@H](CCCNC(=N)N)C(=O)N[C@@H](CCCCN)C(=O)N2)NC(=O)[C@H](CSSC[C@@H](C(=O)N[C@@H](CCCCN)C(=O)N[C@@H](Cc2ccc(O)cc2)C(=O)N[C@H](C(=O)N[C@@H](Cc2ccccc2)C(N)=O)C(C)C)NC(=O)[C@H](Cc2c[nH]c4ccccc24)NC(=O)[C@H](CCCCN)NC(=O)[C@H](Cc2cnc[nH]2)NC(=O)[C@H]([C@@H](C)O)NC(=O)[C@H](CCCNC(=N)N)NC(=O)[C@H](CO)NC3=O)NC(=O)[C@H](CCCCN)NC(=O)[C@H](CC(=O)O)NC(=O)[C@H](CC(N)=O)NC(=O)[C@H](CCCCN)NC(=O)[C@@H]2CCCN2C1=O [compound 42] (H-DCLGFMRKCIPKNDKCCRPNLVCSRTHKWCKYVF-NH2; disulfide 2-17, 9-23, 16-30) |  | 0.09 µM |  |  | 6.51 µM |
| CSCC[C@@H]1NC(=O)[C@H](Cc2ccccc2)NC(=O)CNC(=O)[C@H](CC(C)C)NC(=O)[C@@H](NC(=O)[C@@H](N)CC(=O)O)CSSC[C@@H]2NC(=O)[C@@H]3CSSC[C@@H](C(=O)N[C@@H](CCCCN)C(=O)N[C@@H](Cc4ccc(O)cc4)C(=O)N[C@H](C(=O)N[C@@H](Cc4ccccc4)C(N)=O)C(C)C)NC(=O)[C@H](Cc4c[nH]c5ccccc45)NC(=O)[C@H](CCCCN)NC(=O)[C@H](Cc4cnc[nH]4)NC(=O)[C@H]([C@@H](C)O)NC(=O)[C@H](CCCNC(=N)N)NC(=O)[C@H](CO)NC(=O)[C@H](CSSC[C@H](NC(=O)[C@H](CCCCN)NC(=O)[C@H](CCCNC(=N)N)NC1=O)C(=O)N[C@@H](C)C(=O)N1CCC[C@H]1C(=O)N[C@@H](CC(=O)O)C(=O)N[C@@H](CC(N)=O)C(=O)N[C@@H](CC(=O)O)C(=O)N[C@@H](CCCCN)C(=O)N3)NC(=O)[C@H](C(C)C)NC(=O)[C@H](CC(C)C)NC(=O)[C@H](CC(N)=O)NC(=O)[C@@H]1CCCN1C(=O)[C@H](CCCNC(=N)N)NC2=O [compound 45] (H-DCLGFMRKCAPDNDKCCRPNLVCSRTHKWCKYVF-NH2; disulfide 2-17, 9-23, 16-30) | 16.5 µM | 0.19 µM |  |  |  |
| CC[C@H](C)[C@@H]1NC(=O)[C@@H]2CSSC[C@@H]3NC(=O)[C@H](C(C)C)NC(=O)[C@H](CC(C)C)NC(=O)[C@H](CC(N)=O)NC(=O)[C@@H]4CCCN4C(=O)[C@H](CCCNC(=N)N)NC(=O)[C@H](CSSC[C@H](NC(=O)[C@@H](N)CC(=O)O)C(=O)N[C@@H](CC(C)C)C(=O)NCC(=O)N[C@@H](Cc4ccccc4)C(=O)N[C@@H](CCSC)C(=O)N[C@@H](CCCNC(=N)N)C(=O)N[C@@H](CCCCN)C(=O)N2)NC(=O)[C@H](CSSC[C@@H](C(=O)N[C@@H](CCCCN)C(=O)N[C@@H](Cc2ccc(O)cc2)C(=O)N[C@H](C(=O)N[C@@H](Cc2ccccc2)C(N)=O)C(C)C)NC(=O)[C@H](Cc2c[nH]c4ccccc24)NC(=O)[C@H](CCCCN)NC(=O)[C@H](Cc2cnc[nH]2)NC(=O)[C@H]([C@@H](C)O)NC(=O)[C@H](CCCNC(=N)N)NC(=O)[C@H](CO)NC3=O)NC(=O)[C@H](CCCCN)NC(=O)[C@H](CC(=O)O)NC(=O)[C@H](CCCCN)NC(=O)[C@H](CC(=O)O)NC(=O)[C@@H]2CCCN2C1=O [compound 48] (H-DCLGFMRKCIPDKDKCCRPNLVCSRTHKWCKYVF-NH2; disulfide 2-17, 9-23, 16-30) | 9.72 µM | 0.13 µM |  |  |  |
